Measurements: patent US6117661A, “Mutant mono-oxygenase cytochrome P450cam” (BG plc, priority 1995, dated 2000)
Where two headings read alike, the source gives them in different places.

What was measured:
[1] = biological target: T1, Wild type P450cam (Pseudomonas putida, UniProt P00183); type: binding, P. putida; details: for Wild type ΔSpin high/low: -- = no shift, nd = not determined; for haem spin-state conversion on substrate binding: Soret band 418 nm to 392 nm
[2] = biological target: P450cam Mutant Y96A (Pseudomonas putida, UniProt P00183, C335A/Y97A); type: binding, P. putida; details: for Mutant Y96A ΔSpin high/low: -- = no shift, nd = not determined
[3] = biological target: T2, P450cam Y96A (also contains the C334A mutation) (Pseudomonas putida, UniProt P00183, C335A/Y97A); type: biochemical, P. putida; details: small alkanes
T2 construct: reconstituted with putidaredoxin and putidaredoxin reductase
Procedure: (§1) A buffered solution (50 mM Tris.HCI, pH 7.4), typically 3 ml in volume, containing 10 uM putidaredoxin, 2 uM putidaredoxin reductase, 1 uM cytochrome P-450cam mono-oxygenase (wild-type or mutant), 200 mM KCI, 50 ug/ml bovine liver catalase (Sigma), and 1 mM target organic compound such as cyclohexylbenzene (added as a 0.1 M stock in ethanol) was preincubated at 30° C. for 5 minutes. The enzymatic reaction was initiated by adding NADH to a total concentration of 2 mM. Further four aliquots of NADH (to increase the NADH concentration by 1 mM each time) were added in intervals of 10 minutes, and 30 minutes into the incubation one aliquot of substrate (to increase the concentration by 1 mM) was also added. The reaction was quenched after 60 minutes by adding 0.5 ml chloroform and vortexing the mixture. The phases were separated by centrifugation (4000 g) at 4° C. The chloroform layer was analyzed by gas chromatography.
(§2) The NADH concentration can be monitored at 340 nm and, in all cases, more substrates and NADH are added during the incubation.
(§3) Turnover rate measured as NADH consumption rate
(§4) (nmole NADH/nmole P450cam/s).

[4] = biological target: T1, Wild type P450cam; assay: Turnover rate measured as NADH consumption rate; type: biochemical, P. putida; details: small alkanes; background about 0.07
Procedure: as §1, §2, §3, §4

[5] = biological target: T3, P450cam active site mutant Y96F (also C334A) (Pseudomonas putida, UniProt P00183, C335A/Y97F); type: biochemical, P. putida; details: label = product
T3 construct: reconstituted with putidaredoxin and putidaredoxin reductase
Procedure: as §1
(§5) For many substrate compounds such as cyclohexylbenzene for which not all the P-450cam-mediated oxidation products are commercially available, the chloroform extracts are evaporated to dryness under a stream of nitrogen. The residues were extracted with hexane and the oxidation products separated by high performance liquid chromatography, eluting with a hexane/isopropanol gradient. The purified products were then identified by mass spectroscopy and particularly nuclear magnetic resonance spectroscopy.
as §2

[6] = biological target: T4, P450cam active site mutant Y96A (also C334A) (Pseudomonas putida, UniProt P00183, C335A/Y97A); type: biochemical, P. putida; details: label = product
T4 construct: reconstituted with putidaredoxin and putidaredoxin reductase
Procedure: as §1, §5, §2

| Structure (SMILES) | Wild type Vs DTT [1] | Mutant Y96A Vs DTT [2] | Mutant Y96A ΔSpin high/low [2] | further results |
| --- | --- | --- | --- | --- |
| c1ccc2c(c1)CCCC2 [1,2,3,4-Tetrahydro naphthalene] | 10 | 40 | 40 | Wild type ΔSpin high/low [1]: 5 |
| C1=Cc2ccccc2CC1 [1,2-Dihydronaphthalene] | 20 | 90 | 30 | Wild type ΔSpin high/low [1]: 5 |
| CCc1cccc2ccccc12 [1-Ethylnaphthalene] | – | 20 | 5 | – |
| CCCC(=O)Oc1cccc2ccccc12 [1-Naphthylbutyrate] | 5 | 5 | – | – |
| CCC(=O)Oc1cccc2ccccc12 [1-Naphthylpropionate] | 20 | 20 | 0 | – |
| CC(C)CC(C)(C)C [2,2,4-trimethyl pentane] | – | – | – | Turnover rate (NADH consumption rate) Y96A [3]: 5.3 nmole NADH/nmole P450cam/s; Turnover rate (NADH consumption rate) Wild type [4]: 0.9 nmole NADH/nmole P450cam/s |
| CCC(C)(C)C [2,2-dimethyl butane] | – | – | – | Turnover rate (NADH consumption rate) Y96A [3]: 14.0 nmole NADH/nmole P450cam/s; Turnover rate (NADH consumption rate) Wild type [4]: background |
| CCCC(C)(C)C [2,2-dimethyl pentane] | – | – | – | Turnover rate (NADH consumption rate) Y96A [3]: 12.8 nmole NADH/nmole P450cam/s; Turnover rate (NADH consumption rate) Wild type [4]: 5.2 nmole NADH/nmole P450cam/s |
| CC(C)C(C)C [2,3-dimethyl butane] | – | – | – | Turnover rate (NADH consumption rate) Y96A [3]: 16.8 nmole NADH/nmole P450cam/s; Turnover rate (NADH consumption rate) Wild type [4]: background |
| CC(C)CC(C)C [2,4-dimethyl pentane] | – | – | – | Turnover rate (NADH consumption rate) Y96A [3]: 12.6 nmole NADH/nmole P450cam/s; Turnover rate (NADH consumption rate) Wild type [4]: 0.2 nmole NADH/nmole P450cam/s |
| CCc1ccc2ccccc2c1 [2-Ethylnaphthalene] | – | 20 | 10 | – |
| O=Cc1ccc2c(c1)Cc1ccccc1-2 [2-Fluorencarboxaldehyde] | – | 50 | – | – |
| CCCCC(C)O (stereo not shown) [2-hexanol] | – | – | – | Products(%) Y96F ([5]; substrate hexane): 24%; Products(%) Y96A ([6]; substrate hexane): 26% |
| CCCCC(C)=O [2-hexanone] | – | – | – | Products(%) Y96F ([5]; substrate hexane): 10%; Products(%) Y96A ([6]; substrate hexane): 15% |
| CCC(C)C [2-methyl butane] | – | – | – | Turnover rate (NADH consumption rate) Y96A [3]: 4.6 nmole NADH/nmole P450cam/s; Turnover rate (NADH consumption rate) Wild type [4]: background |
| CCCCCC(C)C [2-methyl heptane] | – | – | – | Turnover rate (NADH consumption rate) Y96A [3]: 2.1 nmole NADH/nmole P450cam/s; Turnover rate (NADH consumption rate) Wild type [4]: background |
| CCCC(C)C [2-methyl pentane] | – | – | – | Turnover rate (NADH consumption rate) Y96A [3]: 11.7 nmole NADH/nmole P450cam/s; Turnover rate (NADH consumption rate) Wild type [4]: 3.8 nmole NADH/nmole P450cam/s |
| CCCCC(C)(C)O [2-methyl-2-hexanol] | – | – | – | Products(%) Y96F ([5]; substrate 2-methyl hexane): 72%; Products(%) Y96A ([6]; substrate 2-methyl hexane): 74% |
| CCCC(O)C(C)C (stereo not shown) [2-methyl-3-hexanol] | – | – | – | Products(%) Y96F ([5]; substrate 2-methyl hexane): 7%; Products(%) Y96A ([6]; substrate 2-methyl hexane): 4% |
| CCC(CC)CC [3-ethyl pentane] | – | – | – | Turnover rate (NADH consumption rate) Y96A [3]: 16.2 nmole NADH/nmole P450cam/s; Turnover rate (NADH consumption rate) Wild type [4]: background |

| Structure (SMILES) | Wild type Vs DTT [1] | Mutant Y96A Vs DTT [2] | Mutant Y96A ΔSpin high/low [2] | further results |
| --- | --- | --- | --- | --- |
| CCCC(O)CC (stereo not shown) [3-hexanol] | – | – | – | Products(%) Y96F ([5]; substrate hexane): 50%; Products(%) Y96A ([6]; substrate hexane): 32% |
| CCCC(=O)CC [3-hexanone] | – | – | – | Products(%) Y96F ([5]; substrate hexane): 16%; Products(%) Y96A ([6]; substrate hexane): 28% |
| CCC(C)CC [3-methyl pentane] | – | – | – | Turnover rate (NADH consumption rate) Y96A [3]: 14.2 nmole NADH/nmole P450cam/s; Turnover rate (NADH consumption rate) Wild type [4]: 1.3 nmole NADH/nmole P450cam/s |
| CCCC(C)CCC [4-methyl heptane] | – | – | – | Turnover rate (NADH consumption rate) Y96A [3]: 10.2 nmole NADH/nmole P450cam/s; Turnover rate (NADH consumption rate) Wild type [4]: 1.4 nmole NADH/nmole P450cam/s |
| CC(C)CCC(C)O (stereo not shown) [5-methyl-2-hexanol] | – | – | – | Products(%) Y96F ([5]; substrate 2-methyl hexane): 5%; Products(%) Y96A ([6]; substrate 2-methyl hexane): 8% |
| CC(=O)CCC(C)C [5-methyl-2-hexanone] | – | – | – | Products(%) Y96F ([5]; substrate 2-methyl hexane): 16%; Products(%) Y96A ([6]; substrate 2-methyl hexane): 14% |
| O=C1c2ccccc2-c2ccccc21 [9-Fluorenone] | 20 | 5 | – | – |
| CC1(C)[C@@H]2CC[C@@]1(C)C(=O)C2=O [(1R)-(-)-Camphorquinone] | 80 | 80 | 80 | Wild type ΔSpin high/low [1]: 80 |
| CC1(C)C(=O)[C@]2(C)CC[C@H]1C2 [(1R)-(-)-Fenchone] | 70 | 80 | 50 | Wild type ΔSpin high/low [1]: 40 |
| C=C(C)[C@H]1CC=C(C)C(=O)C1 [(S)-(+)-Carvone] | 60 | 80 | 10 | Wild type ΔSpin high/low [1]: 10 |
| O=C1c2ccccc2Cc2ccccc21 [Anthrone] | 5 | 5 | – | – |
| c1ccc(COCc2ccccc2)cc1 [Benzylether] | 5 | – | 55 | – |
| c1ccc(CCc2ccccc2)cc1 [Bibenzyl] | – | 55 | 55 | – |
| c1ccc(-c2ccccc2)cc1 [Biphenyl] | 20 | 90 | – | – |
| C1CCCCC1 [Cyclohexane] | – | 60 | 60 | – |
| C1=CCCCC1 [Cyclohexene] | 5 | 40 | 40 | – |
| O=C(c1ccccc1)C1CCCCC1 [Cyclohexylphenylketone] | 30 | – | 60 | – |
| C1=CC2C3C=CC(C3)C2C1 (stereo not shown) [Dicyclopentadiene] | 80 | 90 | 90 | Wild type ΔSpin high/low [1]: 50 |
| c1ccc(Oc2ccccc2)cc1 [Diphenylether] | 5 | 50 | 20 | Wild type ΔSpin high/low [1]: 10 |
| c1ccc(Cc2ccccc2)cc1 [Diphenylmethane] | 5 | – | 45 | – |

| Structure (SMILES) | Wild type Vs DTT [1] | Mutant Y96A Vs DTT [2] | Mutant Y96A ΔSpin high/low [2] | further results |
| --- | --- | --- | --- | --- |
| CCc1ccccc1 [Ethylbenzene] | – | – | 40 | – |
| c1ccc2c(c1)Cc1ccccc1-2 [Fluorene] | – | 50 | – | – |
| C=CC(=C)C [Isoprene] | – | 10 | 10 | – |
| CC1CCCCC1 [Methylcyclohexane] | 50 | 70 | 100 | Wild type ΔSpin high/low [1]: 50 |
| c1ccc(CNc2ccccc2)cc1 [N-Phenylbenzylamine] | 5 | – | 45 | – |
| CCCCCCCC/C=C\CCCCCCCC(=O)O [Oleic acid] | ~10 | ~20 | – | – |
| O=C(Oc1ccccc1)c1ccccc1 [Phenylbenzoate] | 5 | – | – | – |
| CCCCCCCCCCCCOS(=O)(=O)O [SDS] | 20 | 60 | – | – |
| CC(C)CCCC(C)CCCC(C)CCCCC(C)CCCC(C)CCCC(C)C (stereo not shown) [Squalane] | – | 20 | – | – |
| C=Cc1ccccc1 [Styrene] | – | 30 | 30 | – |
| Cc1ccccc1 [Toluene] | – | 30 | 30 | – |
| C1C2CC3CC1CC(C2)C3 [adamantane, reference compound] | – | – | – | haem spin-state conversion on substrate binding [1]: fully converted the haem to the 5-co-ordinated, high-spin form |
| O=C1C2CC3CC(C2)CC1C3 [adamantanone, reference compound] | – | – | – | haem spin-state conversion on substrate binding [1]: fully converted the haem to the 5-co-ordinated, high-spin form |
| C(=C/c1ccccc1)/c1ccccc1 [cis-Stilbene] | 20 | 50 | 40 | – |
| C1CCCCCC1 [cycloheptane] | – | – | – | Turnover rate (NADH consumption rate) Y96A [3]: 42.5 nmole NADH/nmole P450cam/s; Turnover rate (NADH consumption rate) Wild type [4]: 4.4 nmole NADH/nmole P450cam/s |
| CCCCCCCCCCCC [n-Dodecane] | – | 5 | 5 | – |
| CCCCCCCCC [n-Nonane] | – | 45 | 70 | – |
| CCCCCCCCCCC [n-Undecane] | – | 20 | 20 | – |
| C1CC2CCC1C2 [norbornane, reference compound] | – | – | – | haem spin-state conversion on substrate binding [1]: fully converted the haem to the 5-co-ordinated, high-spin form |
| C1CC[C@H]2CCCC[C@@H]2C1 [trans-Decahydro naphthalene] | 10 | 70 | 90 | Wild type ΔSpin high/low [1]: 20 |
